From patent US7988972B2, “Immunoreactive peptides from Epstein-Barr virus” (Ortho-Clinical Diagnostics, Inc., priority 1993, dated 2011)

What was measured:
[1] = system: anti-EA antibodies in human sera; test: ELISA, serological reactivity of human sera with p17 synthetic peptides; assay type: binding; details: for No. Positive/No. Tested / No. Positive/No. Tested (%): sera 1:10
Protocol: ELISA. The ELISA for measuring specific antibodies to p17, p50 or to the synthetic peptides was performed as previously described in detail (Luka et al., J. Immunol. Methods, 67:145-156, 1984). Aliquots of different antigen concentrations were diluted in 0.5M Na2CO3 buffer, pH 9.5, added to wells in polystyrene microtiter plates (Linbro) and the plates incubated overnight at 4° C. Following this incubation period, the plates were washed 5× with Tris-HCl, pH 7.4, containing 0.05% Tween 20, 50 mM NaCl and 100 mg per liter albumin (Sigma) and dried for 20 minutes at room temperature. The plates were screened with different anti-EA-R or EA-D antibody positive human sera and the monoclonal antibody to p17 or p50 to identify the optimal concentration of antigen to be used in the serological studies. Alkaline-phosphatase-labelled goat anti-human IgG (Sigma) or goat anti-mouse IgG (Sigma) was used as the indicator system.
For the testing of human sera for antibodies to native p17, p50 or to the synthetic peptides, sera were diluted 1:10 in ELISA buffer, added in 0.1 ml volumes to wells coated with optimal concentrations of antigen and the plates were incubated for 60 minutes at room temperature. After 4 washes with ELISA buffer, 100 μl of alkaline phosphatase-labelled goat anti-human IgG in ELISA buffer were added to each well and the plates were incubated at room temperature for 1 hour. Following four more washes in buffer, the enzyme reaction was performed by dissolving 1 mg per ml of Sigma alkaline phosphatase substrate in 1M diethanolamine buffer, pH 10.4, containing 1 mM MgCl2 and 0.1 mM ZnCl2, and 100 μl of the mixture was then added to each well. The reaction was allowed to proceed for 30 minutes at 37° C. and then the plates were screened directly with a microplate reader, TITERTEK MULTISKAN MC (Flow), at 420 nm. Readings above 0.1 which was 2× the background noted with antibody-negative sera were considered positive reactions.
Studies were designed to determine the serological reactivity with the p17 synthetic epitopes. For this purpose, 87 anti-EA antibody-positive sera (titer>160) were tested in the ELISA against optimal pre-determined concentrations (2 μg per well) of the p17 synthetic peptides. The sera were obtained from 28 patients with African Burkift's lymphoma (ABL) collected during the Ghanian Burkitt Tumor Project, and from 28 North American patients with intermediate large cell, or high grade non-Hodgkin's lymphoma (NANHL). The donors included both HIV-positive and HIV-negative individuals. In addition, sera from 31 North American nasopharyngeal carcinoma (NANPC) patients were examined in this study (Pearson, G. R., et al., Cancer, 51:260-268, 1983). To validate the EA specificity of the serological reactions, the results with these sera were compared with results with 23 VCA and EA antibody-negative sera and 30 VCA-antibody-positive, EA-antibody negative sera. In contrast to the T-cell proliferation results, all three synthetic peptides reacted with the EA antibody-positive sera to varying degrees with p17.1 again being the dominant epitope. Approximately 60% of the anti-EA-positive sera reacted with p17.1, 48% with p17.2 and 23% with p17.3.
Seventy-one percent of the sera from ABL patients and 93% of the sera from patients with NANHL reacted with p17.1 as opposed to 23% of the sera from North American patients with NPC.

[2] = system: CD8+ T-cell subpopulation; test: Proliferation assay with CD8+-enriched T-cell subpopulation; assay type: cell-based, human
Protocol: PBL enriched for T-cell subpopulations were isolated by depleting a particular population by antibody/complement-mediated cytotoxicity. CD4^+ cells were prepared by lysing CD8^+ cells with anti-CD8 antibody and rabbit complement whereas the CD8^+ T cell subpopulation was enriched by lysing CD4^+ cells with an anti-CD4 antibody and rabbit complement.
PBL were resuspended in RPMI-1640 medium containing 2 mM L-glutamine, 25 mM HEPES, and 10 μg per ml gentamicin (HEPES media) at a concentration of 20×10^6 cells per ml. T cell specific MAb, OKT4 or OKT8 (Ortho Diagnostics Inc.), was added to the cells at the optimal concentration (previously determined by titration to give maximal lysis) and incubated on ice for 30 minutes. The cells were then washed with fresh HEPES media and resuspended at 10×10^6 cells per ml in baby rabbit complement (Pel-Freez Clinical Systems) diluted with the HEPES media to the appropriate concentration (previously assayed to give maximal antibody-specific cytotoxicity). The cells were incubated for 45 minutes in a 37° C. water bath with gentle mixing every 15 minutes. After incubation, the cells were washed thoroughly with the HEPES media and an aliquot (1-2×10^6) of cells was removed and stained for flow cytometric analysis which was performed as described below. […]

[3] = serum donors: Lymphoma (total), EA titers >160
[4] = serum donors: Nasopharyngeal carcinoma (North American), EA titers >160
[5] = serum donors: Non-Hodgkin's lymphoma (North American), EA titers >160
[6] = serum donors: Normal (VCA + EA-)

## ETFTETWNRFITHTE [p17.1, synthetic peptide from 17 Kd early antigen (EA-R) region of EBV]
[1]; 87 anti-EA antibody-positive sera (titer>160), 2 μg peptide per well
  share of anti-EA-positive sera that reacted: Approximately 60%
[1]; serum donors: Burkitt's lymphoma (African), EA titers >160
  No. Positive/No. Tested: 20/28
[1]; [3]
  No. Positive/No. Tested: 46/56
  No. Positive/No. Tested (%): 82%
[1]; [4]
  No. Positive/No. Tested: 7/31
  No. Positive/No. Tested (%): 23%
[1]; [5]
  No. Positive/No. Tested: 26/28
  No. Positive/No. Tested (%): 93%
[1]; [6]
  No. Positive/No. Tested: 0/30
  No. Positive/No. Tested (%): 0%
[1]; serum donors: Normal (VCA − EA-)
  No. Positive/No. Tested: 0/23
[2]; CD8+ subpopulation from donor A
  proliferation response: unresponsive
[2]; CD8+ subpopulation from donor B, 50 μg per ml
  S.I.: greater than 3
